Source: patent US12612403B2, “Nitrogen-containing heterocyclic derivative inhibitor, and preparation method therefor and use thereof” (SHANGHAI HANSOH BIOMEDICAL CO., LTD., priority 2024, dated 2026)

Assays:
PCSK9 protein = target: T1, PCSK9 protein (Homo sapiens, UniProt Q8NBP7); test: Binding ability to PCSK9 protein (HTRF); conditions: PCSK9-His, Alexa Fluor 647 probe compound
T1 construct: purchased Sino biology (Sino Biological) 29698-H08H
Description: 1. Experimental objective: To detect the action of compounds to bind PCSK9 protein by an HTRF method.
3. Experimental data processing method: Four-parameter log(inhibitor) vs. response—Variable slope (four parameters) in XLit was used to perform non-linear fitting of the compound concentration and the corresponding inhibition rate, and IC50 was calculated.

[1] = Pharmacokinetic determination in mice (PO 5 mg/kg, IV 1 mg/kg); assay type: in vivo, C57BL/6J mice; conditions: male, C57BL/6J, mouse, plasma, C57 mice, PO administration, 5 mpk
Description: 1. Experimental objective: C57BL/6J mice were used as test animals to study the pharmacokinetic behavior of the compounds of the present disclosure in mice (plasma) after oral and intravenous administration.
2.2 Test animals: C57 mice, male, purchased from Shanghai Bk Lab Animal Co., Ltd., with animal production license number (SCXK (Shanghai) 2013-0006 N0.311620400001794).
2.3 Drug preparation: Preparation of oral drug: 10% Solutol HS15
10 g of Solutol HS15 solid was weighed, dissolved in 90 mL of pure water, uniformly mixed, stirred, and ultrasonically treated to form a clear solution. The compound of the present disclosure was weighed and dissolved in this solution, uniformly shaken, and ultrasonically treated for 15 minutes to obtain a colorless clear solution with a concentration of 0.5 mg/mL. Preparation of intravenous drug: 5% DMSO+10% Solutol HS15+85% PBS, the compound of the present disclosure was weighed, 5% DMSO was first added on the basis of the proportion relative to the total volume of administration, and the mixture was vortexed and ultrasonically treated for 2 min until it was completely dissolved; 10% of Solutol HS15 was then added, and the mixture was vortexed and ultrasonically treated for 2 min until it was completely dissolved; and finally, 85% of PBS was added, and the mixture was vortexed, ultrasonically treated for 5 min, and filtered through a 0.22 um filter membrane to obtain a colorless and transparent clear solution with a concentration of 0.2 mg/mL.
2.4 Administration: 3 male C57 mice were fasted overnight and then respectively administered PO at a dose of 5 mg/kg and a volume of 10 mL/kg. 3 male C57 mice were fasted overnight and then respectively administered IV at a dose of 1 mg/kg and a volume of 5 mL/kg.
2.5 Sample collection: Before and after administration of mice, 0.04 mL of blood was collected from the orbit at 0.083 (iv), 0.25, 0.5, 1, 2, 4, 8, and 24 hours, and placed in EDTA-K2 test tubes, which was centrifuged at 6000 rpm at 4° C. for 6 min to separate plasma which was stored at −80° C.; and the […] were fed 4 h after administration.
2.6 Determination results: The final determination results were obtained by using an LCMS/MS method.
3. Experimental results: The main pharmacokinetic parameters were calculated using WinNonlin 6.1.

[2] = test system: PCSK9 secreted by HepG2 cells; test: Effect on the concentration of PCSK9 secreted by HepG2 cells (ELISA); assay type: cell-based; conditions: Homo sapiens, 48 hours, PCSK9 in culture medium by ELISA
Description: 1. Experimental objective: To detect the inhibitory effect of the compounds on PCSK9.
2. Experimental method: • 1) HepG2 cell strain was cultured in the complete culture medium at 37° C., 5% CO2 to 70-90% confluence. • 2) The cells were digested and resuspended in the experimental culture medium, inoculated at 25,000 cells/well/200 μL in a 96-well cell culture plate, and cultured at 37° C. and 5% CO2 for 20-24 hours. • 3) The culture medium was removed from the cell culture plate, and the cell culture plate was washed once by adding 200 ul of the experimental culture medium to each well. • 4) Preparation of positive control compound and compound to be tested: the positive control compound and the compound to be tested were diluted on the compound plate. • 5) The diluted compound was added to the cell culture plate at 250 μL per well and incubated at 37° C. and 5% CO2 for 48 hours. • 6) The cell culture medium was collected at 200 μL per well and cryopreserved at −80° C. for later use. • 7) A sample of the cell culture medium was taken from the −80° C. cryopreservation condition, dissolved, vortexed, and centrifuged for later use. • 8) Preparation of standard curve: corresponding volumes of Dilution buffer were successively added to respective standard tubes, and in the order of the concentrations of 10, 5, 2.5, 1.25, 0.625, 0.313, 0.16, 0 ng/mL, the standard was diluted in series by taking the corresponding volume from the original tube or the last concentration tube. • 9) Preparation of washing liquid: 10x Wash buffer was diluted into 1x with Milli-Q for later use. • 10) According to the standard curve wells and sample wells set according to a plate map, 100 μL/well of the corresponding standards and culture medium samples were added to the wells, with 2 replicate wells. A self-adhesive seal was applied, the plate was placed on a plate shaker at room temperature, gently shaken, uniformly mixed, and incubated for 1 hour. • 11) The plate was placed on the plate washer, the washing liquid was set to 350 μL per well, and the plate was washed 4 times repeatedly. • 12) 100 μL/well of an HRP-conjugated detection antibody was added, a self-adhesive seal was applied, and the plate was placed on the plate shaker, well mixed uniformly, and incubated for 1 hour. • 13) The plate was placed on the plate washer, the washing liquid was set to 350 μL per well, and the plate was washed 4 times repeatedly. • 14) 100 μL/well of Substrate reagent was added, and the plate was placed in the dark, applied with a self-adhesive seal, placed on the plate shaker, well mixed uniformly, and incubated for 10-20 minutes. • 15) 100 μL of Stop solution (1N H2SO4) was added to each well and mixed uniformly. • 16) The optical density (OD) value in each well was measured in sequence at a wavelength of 450 nm by the microplate reader. Detection was carried out within 30 min after the reaction was stopped.
3. Experimental data processing method: After the OD values were read by the microplate reader, the OD value of the 0-concentration standard in the standard group was subtracted from the OD values of the standards, control group, and samples to obtain the actual OD values for these wells. A standard curve was plotted with Graphpad and the concentration of the sample was calculated. If the dilution was performed during the sample detection, the calculated sample concentration was necessarily multiplied by the corresponding dilution ratio in the final calculation, which was the actual concentration of the sample. Inhibition rate=(actual concentration in control−actual concentration in sample)/actual concentration in control*100. According to the inhibition rates corresponding to the different concentrations, IC50 was derived by Graphpad.

T1 sequence (Q8NBP7 153-692): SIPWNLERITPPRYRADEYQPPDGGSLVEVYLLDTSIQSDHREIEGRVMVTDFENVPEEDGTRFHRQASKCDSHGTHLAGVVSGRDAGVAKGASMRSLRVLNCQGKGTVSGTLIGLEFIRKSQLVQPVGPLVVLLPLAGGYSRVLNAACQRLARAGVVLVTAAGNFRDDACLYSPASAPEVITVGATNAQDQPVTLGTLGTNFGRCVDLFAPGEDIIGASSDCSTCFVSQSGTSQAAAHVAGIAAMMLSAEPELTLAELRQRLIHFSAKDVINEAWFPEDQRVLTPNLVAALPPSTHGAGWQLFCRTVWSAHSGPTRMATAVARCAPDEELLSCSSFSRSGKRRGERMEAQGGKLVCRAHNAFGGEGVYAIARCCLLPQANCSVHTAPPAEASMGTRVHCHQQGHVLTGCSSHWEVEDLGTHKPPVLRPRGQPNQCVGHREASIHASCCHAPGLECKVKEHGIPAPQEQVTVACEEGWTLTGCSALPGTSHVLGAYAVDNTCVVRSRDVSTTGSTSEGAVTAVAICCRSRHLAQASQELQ

SMILES	IC50 [2] [µM]	other results
Cc1ccc2c(n1)CN(c1ccc(N[C@H]3CC[C@H](Nc4nc5cc(OC(F)F)ccn5n4)C3)nc1)C2=O [Example 131]	–	IC50 (PCSK9 protein): 0.0067 µM; AUC(0-inf) ([1]; read-out: Area under the curve AUC0-∞): 22400 ng·h/mL; half-life ([1]; read-out: Half-life t1/2 (converted)): 3.4 h; MRT ([1]; read-out: Mean residence time MRT): 2.7 h; Cmax ([1]; read-out: Plasma concentration Cmax): 7170 ng/mL; Tmax ([1]; read-out: Time to peak tmax): 0.5 h
CC(C)(C)c1ccc2c(n1)C(=O)N(c1ccc(N[C@H]3CC[C@H](Nc4nc5cc(F)ccn5n4)C3)nc1)C2 [Example 49, 2-(Tert-butyl)-6-(6-(((1S,3S)-3-((7-fluoro-[1,2,4]triazolo[1,5-a]pyridin-2-yl)amino)cyclopentyl)amino)pyridin-3-yl)-5,6-dihydro-7H-pyrrolo[3,4-b]pyridin-7-one]	2.7	–
O=C1c2cc(F)cnc2CN1c1ccc(N[C@H]2CC[C@H](Nc3nc4cc(C(F)(F)F)ccn4n3)C2)nc1 [Example 61, 3-fluoro-6-(6-(((1S,3S)-3-((7-(trifluoromethyl)-[1,2,4]triazolo[1,5-a]pyridin-2-yl)amino)cyclopentyl)amino)pyridin-3-yl)-6,7-dihydro-5H-pyrrolo[3,4-b]pyridin-5-one]	0.6	–
O=C1N(c2ccc(N[C@H]3CC[C@H](Nc4nc5cc(F)ccn5n4)C3)nc2)CCC12CC2 [Example 54, 5-(6-(((1S,3S)-3-((7-fluoro-[1,2,4]triazolo[1,5-a]pyridin-2-yl)amino)cyclopentyl)amino)pyridin-3-yl)-5-azaspiro[2.4]heptan-4-one]	23.4	–
O=C1c2ncc(F)cc2CN1c1ccc(N[C@H]2CC[C@H](Nc3nc4cc(C(F)(F)F)ccn4n3)C2)nc1 [Example 27, 3-Fluoro-6-(6-(((1S,3S)-3-((7-(trifluoromethyl)-[1,2,4]triazolo[1,5-a]pyridin-2-yl)amino)cyclopentyl)amino)pyridin-3-yl)-5,6-dihydro-7H-pyrrolo[3,4-b]pyridin-7-one]	12	–
O=C1c2cccc(C(F)(F)F)c2CN1c1ccc(N[C@H]2CC[C@H](Nc3nc4cc(F)ccn4n3)C2)nc1 [Example 26]	22.8	–
O=c1ccccn1-c1ccc(N[C@H]2CC[C@H](Nc3nc4cc(C5CC5)ccn4n3)C2)nc1 [Example 427]	22.3	–
O=c1ccccn1-c1ccc(N[C@H]2CC[C@H](Nc3nc4cc(C(F)(F)F)ccn4n3)C2)nc1 [Example 426]	14	–
O=C1N(c2ccc(N[C@H]3CC[C@H](Nc4nc5cc(C(F)(F)F)ccn5n4)C3)nc2)CCC12CC2 [Example 58, 5-(6-(((1S,3S)-3-((7-(trifluoromethyl)-[1,2,4]triazolo[1,5-a]pyridin-2-yl)amino)cyclopentyl)amino)pyridin-3-yl)-5-azaspiro[2.4]heptan-4-one]	11.1	–
Cc1ccc2c(n1)CN(c1ccc(N[C@H]3CC[C@H](Nc4nc5cc(C(F)(F)F)ccn5n4)C3)nc1)C2=O [Example 67, 2-methyl-6-(6-(((1S,3S)-3-((7-(trifluoromethyl)-[1,2,4]triazolo[1,5-a]pyridin-2-yl)amino)cyclopentyl)amino)pyridin-3-yl)-6,7-dihydro-5H-pyrrolo[3,4-b]pyridin-5-one]	17.1	–
Cc1cc2c(c(C#N)n1)CN(c1ccc(N[C@H]3CC[C@H](Nc4nc5cc(C(F)(F)F)ccn5n4)C3)nc1)C2=O [Example 90, 6-methyl-1-carbonyl-2-(6-(((1S,3S)-3-((7-(trifluoromethyl)-[1,2,4]triazolo[1,5-a]pyridin-2-yl)amino)cyclopentyl)amino)pyridin-3-yl)-2,3-dihydro-1H-pyrrolo[3,4-c]pyridine-4-carbonitrile]	2.7	–
Cc1nccc2c1CN(c1ccc(N[C@H]3CC[C@H](Nc4nc5cc(OC(F)F)ccn5n4)C3)nc1)C2=O [Example 100]	5	–
CN(Cc1ccc(N[C@H]2CC[C@H](Nc3nc4cc(C(F)(F)F)ccn4n3)C2)nc1)C(=O)c1ccccn1 [Example 62, N-methyl-N-(6-(((1S,3S)-3-((7-(trifluoromethyl)-[1,2,4]triazolo[1,5-a]pyridin-2-yl)amino)cyclopentyl)amino)pyridin-3-yl)methylpicolinamide]	17.6	–
Cn1c2ccccc2c(=O)n1-c1ccc(N[C@H]2CC[C@H](Nc3nc4cc(C(F)(F)F)ccn4n3)C2)nc1 [Example 87]	0.6	–
Cc1nccc2c1CN(c1ccc(N[C@H]3CC[C@H](Nc4nc5cc(C(F)(F)F)ccn5n4)C3)nc1)C2=O [Example 57, 4-methyl-2-(6-(((1S,3S)-3-((7-(trifluoromethyl)-[1,2,4]triazolo[1,5-a]pyridin-2-yl)amino)cyclopentyl)amino)pyridin-3-yl)-2,3-dihydro-1H-pyrrolo[3,4-c]pyridin-1-one]	1.7	–
O=c1nc(O)ccn1-c1ccc(N[C@H]2CC[C@H](Nc3nc4cc(Cl)ccn4n3)C2)nc1 [Example 103]	1.4	–
Cc1cccnc1C(=O)Nc1ccc(N[C@H]2CC[C@H](Nc3nc4cc(C(F)(F)F)ccn4n3)C2)nc1 [Example 60]	27.4	–
CC(C)(O)c1cccn(-c2ccc(N[C@H]3CC[C@H](Nc4nc5cc(C(F)(F)F)ccn5n4)C3)nc2)c1=O [Example 63, 3-(2-hydroxypropan-2-yl)-6′-(((1S,3S)-3-((7-(trifluoromethyl)-[1,2,4]triazolo[1,5-a]pyridin-2-yl)amino)cyclopentyl)amino)-2H-[1,3′-bipyridine]-2-one]	26.5	–
O=C1c2ncc(Cl)cc2CN1c1ccc(N[C@H]2CC[C@H](Nc3nc4cc(C(F)(F)F)ccn4n3)C2)nc1 [Example 95]	0.7	–
